Measured values: ChEMBL document CHEMBL1127385, “Synthesis and diuretic activity of alkyl- and arylguanidine analogs of N,N'-dicyclohexyl-4-morpholinecarboxamidine in rats and dogs” (J Med Chem, 1994)

Legend:
Details in all cases: in vivo, po
Rattus norvegicus [1] = experiment: Total electrolytic excretion of potassium in urine of rats after peroral administration of 77.5 uM/Kg of drug; type: ADME, organism-based
Rattus norvegicus [2] = experiment: Total electrolytic excretion of sodium in urine of rats after peroral administration of 25.9 uM/Kg of drug; type: ADME, organism-based
Rattus norvegicus [3] = experiment: Ratio of Total electrolytic excretion of sodium and potassium in urine of rats after peroral administration of 25.9 uM/Kg of drug; type: ADME, organism-based
Rattus norvegicus [4] = experiment: Total electrolytic excretion of potassium in urine of rats after peroral administration of 259 uM/Kg of drug; type: ADME, organism-based
Rattus norvegicus [5] = experiment: Ratio of Total electrolytic excretion of sodium and potassium in urine of rats after peroral administration of 77.7 uM/Kg of drug; type: ADME, organism-based
Rattus norvegicus [6] = experiment: Total electrolytic excretion of chlorine in urine of rats after peroral administration of 77.5 uM/Kg of drug; type: ADME, organism-based
Rattus norvegicus [7] = experiment: Tested for the diuretic activity by measuring the urinary volume after peroral administering 25.9 uM/Kg of drug in rats; type: ADME, organism-based, Urine
Rattus norvegicus [8] = experiment: Total electrolytic excretion of sodium in urine of rats after peroral administration of 259 uM/Kg of drug; type: ADME, organism-based
Rattus norvegicus [9] = experiment: Total electrolytic excretion of sodium in urine of rats after peroral administration of 77.5 uM/Kg of drug; type: ADME, organism-based
Rattus norvegicus [10] = experiment: Tested for the diuretic activity by measuring the urinary volume after peroral administering 259 uM/Kg of drug in rats; type: ADME, organism-based, Urine
Rattus norvegicus [11] = experiment: Total electrolytic excretion of potassium in urine of rats after peroral administration of 25.9 uM/Kg of drug; type: ADME, organism-based
Rattus norvegicus [12] = experiment: Total electrolytic excretion of chlorine in urine of rats after peroral administration of 25.9 uM/Kg of drug; type: ADME, organism-based
Rattus norvegicus [13] = experiment: Total electrolytic excretion of chlorine in urine of rats after peroral administration of 259 uM/Kg of drug; type: ADME, organism-based
Rattus norvegicus [14] = experiment: Tested for the diuretic activity by measuring the urinary volume after peroral administering 77.5 uM/Kg of drug in rats; type: ADME, organism-based, Urine
Rattus norvegicus [15] = experiment: Ratio of Total electrolytic excretion of sodium and potassium in urine of rats after peroral administration of 259 uM/Kg of drug; type: ADME, organism-based
Rattus norvegicus [16] = experiment: Total electrolytic excretion of potassium in urine of rats after peroral administration of 289 uM/Kg of drug; type: ADME, organism-based
Rattus norvegicus [17] = experiment: Total electrolytic excretion of sodium in urine of rats after peroral administration of 289 uM/Kg of drug; type: ADME, organism-based
Rattus norvegicus [18] = experiment: Ratio of Total electrolytic excretion of sodium and potassium in urine of rats after peroral administration of 86.9 uM/Kg of drug; type: ADME, organism-based
Rattus norvegicus [19] = experiment: Total electrolytic excretion of potassium in urine of rats after peroral administration of 28.9 uM/Kg of drug; type: ADME, organism-based
Rattus norvegicus [20] = experiment: Total electrolytic excretion of chlorine in urine of rats after peroral administration of 289 uM/Kg of drug; type: ADME, organism-based
Rattus norvegicus [21] = experiment: Total electrolytic excretion of sodium in urine of rats after peroral administration of 86.9 uM/Kg of drug; type: ADME, organism-based
Rattus norvegicus [22] = experiment: Tested for the diuretic activity by measuring the urinary volume after peroral administering 289 uM/Kg of drug in rats; type: ADME, organism-based, Urine
Rattus norvegicus [23] = experiment: Total electrolytic excretion of chlorine in urine of rats after peroral administration of 28.9 uM/Kg of drug; type: ADME, organism-based
Rattus norvegicus [24] = experiment: Total electrolytic excretion of chlorine in urine of rats after peroral administration of 86.9 uM/Kg of drug; type: ADME, organism-based
Rattus norvegicus [25] = experiment: Total electrolytic excretion of potassium in urine of rats after peroral administration of 86.9 uM/Kg of drug; type: ADME, organism-based
Rattus norvegicus [26] = experiment: Tested for the diuretic activity by measuring the urinary volume after peroral administering 86.9 uM/Kg of drug in rats; type: ADME, organism-based, Urine
Rattus norvegicus [27] = experiment: Ratio of Total electrolytic excretion of sodium and potassium in urine of rats after peroral administration of uM/Kg of drug; type: ADME, organism-based
Rattus norvegicus [28] = experiment: Ratio of Total electrolytic excretion of sodium and potassium in urine of rats after peroral administration of 28.9 uM/Kg of drug; type: ADME, organism-based
Rattus norvegicus [29] = experiment: Total electrolytic excretion of sodium in urine of rats after peroral administration of 28.9 uM/Kg of drug; type: ADME, organism-based
Rattus norvegicus [30] = experiment: Tested for the diuretic activity by measuring the urinary volume after peroral administering 28.9 uM/Kg of drug in rats; type: ADME, organism-based, Urine

C1CCCC(/N=C(/NC2CCCCCCC2)N2CCOCC2)CCC1
Excretion K+ (Rattus norvegicus [1]): 0.27 m equiv | Excretion Na+ (Rattus norvegicus [2]): 1.45 m equiv | Ratio (Rattus norvegicus [3]): 5.5 | Excretion K+ (Rattus norvegicus [4]): 0.16 m equiv | Ratio (Rattus norvegicus [5]): 7.1 | Excretion Cl- (Rattus norvegicus [6]): 1.99 m equiv | V (Rattus norvegicus [7]): 8.7 mL | Excretion Na+ (Rattus norvegicus [8]): 1.17 m equiv | Excretion Na+ (Rattus norvegicus [9]): 1.89 m equiv | V (Rattus norvegicus [10]): 5 mL | Excretion K+ (Rattus norvegicus [11]): 0.26 m equiv | Excretion Cl- (Rattus norvegicus [12]): 1.5 m equiv | Excretion Cl- (Rattus norvegicus [13]): 1.05 m equiv | V (Rattus norvegicus [14]): 11.8 mL | Ratio (Rattus norvegicus [15]): 7.5

C1CCC(/N=C(/NC2CCCCC2)N2CCSCC2)CC1
Excretion K+ (Rattus norvegicus [16]): 0.27 m equiv | Excretion Na+ (Rattus norvegicus [17]): 1.59 m equiv | Ratio (Rattus norvegicus [18]): 5.7 | Excretion K+ (Rattus norvegicus [19]): 0.36 m equiv | Excretion Cl- (Rattus norvegicus [20]): 1.51 m equiv | Excretion Na+ (Rattus norvegicus [21]): 1.81 m equiv | V (Rattus norvegicus [22]): 9.2 mL | Excretion Cl- (Rattus norvegicus [23]): 1.49 m equiv | Excretion Cl- (Rattus norvegicus [24]): 1.78 m equiv | Excretion K+ (Rattus norvegicus [25]): 0.32 m equiv | V (Rattus norvegicus [26]): 11.3 mL | Ratio (Rattus norvegicus [27]): 5.5 | Ratio (Rattus norvegicus [28]): 3.7 | Excretion Na+ (Rattus norvegicus [29]): 1.32 m equiv | V (Rattus norvegicus [30]): 9.1 mL
